pEC50, pKi: −log10 of the molar value.
What was measured:
MC3 receptor (MC3R) = target: T1, MC3 receptor (MC3R) (Homo sapiens, UniProt P41968); experiment: Nle4, D-Phe7-α-MSH inhibition at the MC3 receptor (competition binding, SPA, CHO-CRE MC3R membranes)
T1 construct: expressed in transfected cells; host or cells: CHO-CRE MC3R cells (membranes)
Excerpt: Nle4, D-Phe7-α-MSH Inhibition at the MC3 Receptor
(§1) Nle4, D-Phe7-α-MSH is a stable analogue of melanocyte-stimulating hormone (MSH), which is an agonist at the MC3 receptor (MC3R). Compounds can be evaluated for their ability to inhibit Nle4, D-Phe7-α-MSH binding to membranes from cells expressing the MC3R using a competition binding assay versus [^125I] Nle4, D-Phe7-α-MSH.
(§2) Cells expressing the MC3R were subject to homogenisation and the membrane fragment isolated by differential centrifugation. CHO-CRE MC3R cell membranes were coupled to PVT-PEI-WGA SPA Beads type A for 2 hours, spun at 1000 RPM for 5 mins and suspended to a final assay concentration of 800 ug bead/ml (1.2 ug membrane, 40 ug bead per well). Bead/membrane mix was incubated with 0.06 nM [^125I] Nle4, D-Phe7-α-MSH and 11 half-log concentrations of competitor ligand, in duplicate, in a total volume of 50 μl buffer per well (25 mM HEPES, 1 mM MgCl2, 2.5 mM CaCl2, 1% Pluronic F68, 1 complete EDTA protease inhibitor tablet/50 ml pH7). Non-specific binding was determined by the inclusion of 100 nM SHU9119. The reaction was initiated by the addition of bead/membranes and plates were incubated at room temperature for 12 hours (the first hour on a plate shaker), after which the amount of radioactivity present was determined using a Wallac plate counter. Ki values were determined by data analysis using appropriate software.

[1] = In vitro metabolism rate determination, human liver microsome (HLM) assay; assay type: in vitro ADME; conditions: human, liver microsomes, read-out: HLM: Clint, app
Excerpt: In Vitro Metabolism Rate Determination (Human Liver Microsome (HLM); Rat Liver Microsome (RLM) Assay)
Many drugs are metabolised by the cytochrome P450 mono-oxygenase system. This enzyme is found in high concentrations in the liver and is bound to the endoplasmic reticulum of the hepatocyte. The enzyme system can be obtained in semi-purified state by the preparation of the hepatic microsomal fractions. Determining a compound's in vitro half-life in such a system provides a useful indicator of metabolic stability.
Methodology for In Vitro Rate Determination Using Hepatic & Supermix Microsomes
The method outlined below is for a total incubation volume of 1.5 ml.
1. The following mixture is prepared in a test tube:
2. Defrost microsomes at room temperature and add sufficient microsomes to give a final concentration of 0.5 nmol cytochrome P450/ml of incubation e.g. for a 1.5 ml incubation, the volume of microsomes to be added is:
3. Add sufficient MilliQ water to give a total incubation volume of 1.425 ml.
6. Add substrate to the incubation. The substrate should be at an initial concentration of 1 μM. The volume of substrate required in the remaining 1.162.5 ml incubation is calculated as follows: […]
8. Pre-incubate the tube containing the incubation mix, also positive control and no cofactor tubes in the thermostatically controlled shaking water bath set at 37° C. for approx 5 min.
9. Add NADP to initiate reaction (75 μl to each 1.162.5 ml incubation mix, 12.5 μl to positive control tube and 5 μl to no substrate tube) and take first time point immediately. The PNA positive control, no cofactor control and no substrate tubes are incubated for the total incubation time.
10. Remove 100 μl aliquots up to 9 different sampling points from 0 to 60 min (usually 0, 3, 5, 10, 15, 20, 30, 45 & 60 min) and terminate reaction. Longer incubation times can be used, but, after 120 min the microsomes deteriorate. The reaction may be terminated by addition of organic solvent, acid or base. At the end of the incubation process the no cofactor and no substrate controls in a similar manner i.e. terminate with the same reagent.
11. Analyse samples (including no cofactor and no substrate control) by a specific assay for the substrate to determine the disappearance kinetics.
Data obtained using the procedure described above can be quantified in terms of the substrates in vitro intrinsic clearance (Clint). Providing that the substrate concentration is below Km, the metabolism should be 1st order giving a log-linear plot of substrate disappearance with time.
The gradient of this line is the first order rate constant (k) for the substrate disappearance and is determined by regression analysis. This rate constant can be converted to the half-life according to the following equation.
Alternatively the rate constant can be converted to an intrinsic clearance (Clint) according to the following equation:— Clint(μl/min/mg)=(k/protein concentration in incubation (mg/ml))*1000

MC4 receptor (MC4R) = target: T2, MC4 receptor (MC4R) (Homo sapiens, UniProt P32245); experiment: Nle4, D-Phe7-α-MSH inhibition at the MC4 receptor (competition binding, SPA, CHO-CRE MC4R membranes)
T2 construct: expressed in transfected cells; host or cells: CHO-CRE MC4R cells (membranes)
Excerpt: Nle4, D-Phe7-α-MSH Inhibition at the MC4 Receptor
as §1, with “MC4” for “MC3”, “(MC4R).” for “(MC3R).”, “MC4R” for “MC3R”
as §2, with “MC4R” for “MC3R”, “min” for “mins”, “a” for “a final assay”, “300” for “800”, “(0.15” for “(1.2”, “15” for “40”

CYP3A4 = target: T3, CYP3A4 (Homo sapiens, UniProt P08684); experiment: High density DDI 3 μM cocktail screen in human liver microsomes, midazolam probe; assay type: in vitro ADME; conditions: human, liver microsomes, probe midazolam, read-out: % inhibition 3A4 @ 3 μM
T3 construct: utilizes human liver microsomes together with isoform-specific clinical drug probes; from tissue; host or cells: human liver microsomes
Protocol: High Density Drug-Drug Interactions (DDI) 3 μM Cocktail Screen
A drug interaction is a situation in which a substance affects the activity of another drug, i.e. the effects are increased or decreased, or together they produce a new effect that neither produces on its own. Drug interactions may be the result of various processes but a relatively common one is where one drug affects the pharmacokinetics of another by inhibiting the cytochrome P450 that metabolises it. Because of the importance of these phenomena, assessment of the DDI potential for new chemical entities (NCEs) is considered important early on in the drug discovery process.
The DDI cocktail screen in human liver microsomes (HLM) is run in a fully automated fashion and the aim of the screen is to provide a single-point assessment of the DDI potential of new chemical entity (NCE; tested at […]) against the 4 primary cytochrome P450 enzymes, 1A2, 2D6, 2C9 and 3A4.
The substrate cocktail approach for P450 DDI utilizes human liver microsomes together with isoform-specific clinical drug probes and permits the simultaneous measurement of the inhibition of P450 1A2, 2C9, 2D6 & 3A4 activities in a single incubation. This is run in high throughput with simultaneous detection of metabolites by LC-MS/MS. This method has been thoroughly tested and evaluated using standard compounds.
Appearance of the metabolite of each substrate is measured over time in the presence and absence of the NCE (test compound/inhibitor) at a concentration of 3 μM. The compounds are assessed for their inhibitory potential as a percentage value and interpreted using the following scheme.

MC4 receptor = MC4 receptor (Homo sapiens, UniProt P32245); experiment: MC4 EC50 functional potency (protocol E of US2005/0176772 / WO 2005/077935); assay type: cell-based
Protocol: The compounds of formula (I) of the present invention have utility as MCR4 agonists in the treatment of various disease states.
MC5 and MC4 EC50 activity was determined as described by assay protocols D and E, respectively, in US2005/0176772 (pages 28-30).

T3 sequence (P08684 whole entry, canonical isoform): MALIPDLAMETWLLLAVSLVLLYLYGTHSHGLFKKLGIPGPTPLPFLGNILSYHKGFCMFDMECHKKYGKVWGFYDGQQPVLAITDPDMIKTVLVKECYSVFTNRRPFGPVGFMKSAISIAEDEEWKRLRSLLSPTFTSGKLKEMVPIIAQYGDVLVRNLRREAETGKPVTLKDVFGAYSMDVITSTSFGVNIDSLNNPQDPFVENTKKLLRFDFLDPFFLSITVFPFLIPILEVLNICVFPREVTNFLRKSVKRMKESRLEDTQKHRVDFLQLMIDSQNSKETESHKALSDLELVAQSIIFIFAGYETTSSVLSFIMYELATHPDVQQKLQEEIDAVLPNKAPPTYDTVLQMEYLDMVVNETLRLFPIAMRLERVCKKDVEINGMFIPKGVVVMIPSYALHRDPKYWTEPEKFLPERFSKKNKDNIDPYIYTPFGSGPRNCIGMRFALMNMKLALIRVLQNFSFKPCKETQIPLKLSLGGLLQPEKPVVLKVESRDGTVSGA
T2 sequence (P32245 whole entry): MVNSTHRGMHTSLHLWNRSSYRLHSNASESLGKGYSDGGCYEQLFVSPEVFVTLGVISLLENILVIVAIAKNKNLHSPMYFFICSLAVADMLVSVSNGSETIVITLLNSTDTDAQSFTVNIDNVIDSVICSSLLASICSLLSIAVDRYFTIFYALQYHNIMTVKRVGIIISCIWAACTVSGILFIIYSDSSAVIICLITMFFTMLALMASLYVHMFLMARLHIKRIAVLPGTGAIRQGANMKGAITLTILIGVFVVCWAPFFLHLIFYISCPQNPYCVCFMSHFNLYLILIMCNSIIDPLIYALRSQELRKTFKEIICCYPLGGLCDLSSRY
Sequence of MC4 receptor (P32245 whole entry): as above
T1 sequence (P41968 whole entry): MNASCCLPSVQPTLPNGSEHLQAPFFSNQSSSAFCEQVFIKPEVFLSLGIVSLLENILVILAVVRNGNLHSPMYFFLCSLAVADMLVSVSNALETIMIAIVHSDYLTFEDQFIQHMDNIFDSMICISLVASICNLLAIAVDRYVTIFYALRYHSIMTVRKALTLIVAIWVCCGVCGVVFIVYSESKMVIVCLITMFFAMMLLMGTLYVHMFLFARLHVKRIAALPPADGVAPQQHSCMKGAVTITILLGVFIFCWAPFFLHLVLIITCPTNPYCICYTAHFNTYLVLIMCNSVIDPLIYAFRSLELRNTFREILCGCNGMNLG

| pKi (MC3 receptor (MC3R)) | microsomal CLint at 1 μM [1] | pKi (MC4 receptor (MC4R)) | inhibition at 3 µM (CYP3A4) | pEC50 (MC4 receptor) | Compound |
| --- | --- | --- | --- | --- | --- |
| 5.53 | 31 µL/min/mg | 5.68 | 63% | 6.80 | COc1ccc(C2CCCN(C(=O)[C@@H]3CN(c4ccc(C#N)nn4)C[C@H]3c3ccc(F)cc3F)CCN2C(C)=O)cc1 (mixture of isomers) [Example 1, 6-[(3S,4R)-3-{[4-acetyl-5-(4-methoxyphenyl)-1,4-diazocan-1-yl]carbonyl}-4-(2,4-difluorophenyl)pyrrolidin-1-yl]pyridazine-3-carbonitrile] |
| 6.43 | 39 µL/min/mg | 6.57 | 60% | 7.72 | CC(=O)N1CCN(C(=O)[C@@H]2CN(c3ccc(C#N)nn3)C[C@H]2c2ccc(F)cc2F)CCCC1c1ccccc1F (mixture of isomers) [Example 2] |
| 5.50 | 60 µL/min/mg | 6.28 | 30% | 7.37 | CC(=O)N1CCN(C(=O)[C@@H]2CN(c3cccnn3)C[C@H]2c2ccc(F)cc2F)CCC1c1ccccc1 (mixture of isomers) [Example 3] |
| 6.09 | 237 µL/min/mg | 6.26 | 36.5% | 6.84 | COc1cccc(C2CCCN(C(=O)[C@@H]3CN(c4ccc(C#N)nn4)C[C@H]3c3ccc(F)cc3F)CCN2C(C)=O)c1 (mixture of isomers) [Example 4] |
| 5.58 | 55 µL/min/mg | 6.23 | 61.5% | 7.07 | COC(=O)N1CCN(C(=O)[C@@H]2CN(c3ccc(C#N)nn3)C[C@H]2c2ccc(F)cc2F)CCCC1c1ccc(OC)cc1 (mixture of isomers) [Example 48] |
| 5.65 | 86 µL/min/mg | 6.68 | 42.5% | 7.68 | COC(=O)N1CCN(C(=O)[C@@H]2CN(c3cccnn3)C[C@H]2c2ccc(F)cc2F)CCC1c1ccccc1 (mixture of isomers) [Example 49] |
| 5.79 | 266 µL/min/mg | 6.42 | 76.5% | 7.13 | COC(=O)N1CCN(C(=O)[C@@H]2CN(c3ccc(C#N)nn3)C[C@H]2c2ccc(F)cc2F)CCCC1c1cccc(OC)c1 (mixture of isomers) [Example 50] |
| 4.71 | 74 µL/min/mg | 5.86 | 56% | 7.06 | COC(=O)N1CCN(C(=O)[C@@H]2CN(C3CCOCC3)C[C@H]2c2ccc(F)cc2F)CCCC1c1ccccc1 (mixture of isomers) [Example 74] |
| 6.34 | 8 µL/min/mg | 7.07 | 73.5% | 7.97 | COC(=O)N1CCN(C(=O)[C@@H]2CN(c3ccc(C#N)nn3)C[C@H]2c2ccc(F)cc2F)CCCC1c1ccc(Cl)cc1 (mixture of isomers) [Example 75] |
| 6.20 | 19 µL/min/mg | 7.30 | 70.5% | 8.27 | COC(=O)N1CCN(C(=O)[C@@H]2CN(c3ccc(=O)n(C)n3)C[C@H]2c2ccc(F)cc2F)CCCC1c1ccc(Cl)cc1 (mixture of isomers) [Example 80] |
| 5.76 | 18 µL/min/mg | 6.91 | 32% | 7.70 | Cn1nc(N2C[C@@H](C(=O)N3CCCC(c4ccc(Cl)cc4)N(S(C)(=O)=O)CC3)[C@H](c3ccc(F)cc3F)C2)ccc1=O (mixture of isomers) [Example 81] |
| 5.67 |  | 6.03 | 50% | 6.77 | CS(=O)(=O)N1CCN(C(=O)[C@@H]2CN(c3ccc(C#N)nn3)C[C@H]2c2ccc(C#N)cc2)CCCC1c1ccc(Cl)cc1 (mixture of isomers) [Example 87] |
|  | 31.1 µL/min/mg | 7.04 | 44.9% | 8.32 | CC1(C(=O)N2CCN(C(=O)[C@@H]3CN(C(C)(C)C)C[C@H]3c3ccc(F)cc3F)CCC[C@H]2c2ccc(Cl)cc2)CC1 [Example 60, 1-{[(3S,4R)-1-tert-butyl-4-(2,4-difluorophenyl)pyrrolidin-3-yl]carbonyl}-5S-(4-chlorophenyl)-4-(1-methylcyclopropylcarbonyl)-1,4-diazocane] |
|  |  | 5.44 | 0% | 7.74 | COc1ccc([C@@H]2CN(C(C)(C)C)C[C@H]2C(=O)N2CCC[C@@H](c3ccc(Cl)cc3)N(C(=O)C3CC(F)(F)C3)CC2)c(F)c1 [Example 62] |

From patent US8592403B2, “Diazepine and diazocane compounds as MC4 agonists” (Pfizer Limited, priority 2008, dated 2013)
